Test results taken from publication PMC11856857, “Protease-Resistant, Broad-Spectrum Antimicrobial Peptides with High Antibacterial and Antifungal Activity” (Life, 2025).
In brackets after ≈: the same amount, converted by molar mass. Read-outs that look alike come from different tables or passages of the source. Where no end group is shown, it is not given here.

Experiments:
[1] = test system: S. aureus ATCC 29213; assay: Resistance development by serial passages; format: cell-based, Staphylococcus aureus; details: for MIC: Staphylococcus aureus
[2] = test system: resistant Klebsiella pneumoniae (KP) strain; format: cell-based
[3] = test system: C. albicans ATCC 10231; format: cell-based, Candida albicans
[4] = test system: P. aeruginosa ATCC 27853; format: cell-based, Pseudomonas aeruginosa
[5] = test system: E. coli ATCC 25922; format: cell-based, Escherichia coli
[6] = test system: S. aureus ATCC 29213; format: cell-based, Staphylococcus aureus

Row | Molecule | MIC C. albicans [3] | MIC P. aeruginosa [4] | MIC E. coli [5] | MIC S. aureus [6] | further results
1 | CNC(C)C1CCC(N)C(OC2C(N)CC(N)C(OC3OCC(C)(O)C(NC)C3O)C2O)O1 (stereo not drawn) [gentamicin] | – | – | – | – | MIC value in the sixth passage ([1]; S. aureus ATCC 29213, continuous serial passaging): 8 µg/mL (≈ 16.8 µM); MIC ([1]; ATCC29213, read-out: MIC value in the sixth passage): 8 µg/mL (≈ 16.8 µM); MIC ([1]; ATCC29213, read-out: initial MIC value): 1 µg/mL (≈ 2.09 µM)
2 | Polymyxin B [reference compound] | – | – | – | – | MIC KP1 ([2]; Table S2, strain KP1): 16 µg/mL; MIC KP2 ([2]; Table S2, strain KP2): 2 µg/mL; MIC KP8 ([2]; Table S2, strain KP8): 64 µg/mL; MIC KP9 ([2]; Table S2, strain KP9): 2 µg/mL; MIC KP13 ([2]; Table S2, strain KP13): 16 µg/mL; MIC KP22 ([2]; Table S2, strain KP22): 8 µg/mL; MIC KP28 ([2]; Table S2, strain KP28): 16 µg/mL; MIC KP29 ([2]; Table S2, strain KP29): 16 µg/mL; MIC KP35 ([2]; Table S2, strain KP35): 8 µg/mL; MIC KP40 ([2]; Table S2, strain KP40): 4 µg/mL; MIC KP41 ([2]; Table S2, strain KP41): 4 µg/mL; MIC KP42 ([2]; Table S2, strain KP42): 8 µg/mL; MIC KP46 ([2]; Table S2, strain KP46): 16 µg/mL; MIC KP52 ([2]; Table S2, strain KP52): 8 µg/mL
3 | RAARAAARAAR-NH2 [TN6A5] | 128 µg/mL | >1024 µg/mL | 1024 µg/mL | >1024 µg/mL | –
4 | RALRALARALR-NH2 [TN6A1] | 256 µg/mL | 256 µg/mL | 128 µg/mL | 128 µg/mL | –
5 | RIIRIIIRIIR-NH2 [TN6I1] | 128 µg/mL | 128 µg/mL | 32 µg/mL | 16 µg/mL | –
6 | RILRILIRLIR-NH2 [TN6I2] | 128 µg/mL | 32 µg/mL | 16 µg/mL | 2 µg/mL | –
7 | RLLRLLLLRLLR-NH2 [TN1] | 0.5 µg/mL | 32 µg/mL | 2 µg/mL | 4 µg/mL | –
8 | RLLRLLLRLLR [D/L-TN6, TN6 template, arginine in L-form, leucine in L- and D-forms] | – | – | – | – | MIC C. albicans ([3]; CLSI M27-A3): 8 µg/mL
9 | RLLRLLRLLL [TN3-carboxy] | 1 µg/mL | 32 µg/mL | 4 µg/mL | 16 µg/mL | –
10 | RLLRLLRLLL-NH2 [TN3-amide] | 2 µg/mL | 4 µg/mL | 8 µg/mL | 8 µg/mL | –
11 | RLLRLLRLLLL-NH2 [TN8] | 0.5 µg/mL | 256 µg/mL | 4 µg/mL | 8 µg/mL | –
12 | RLLRLLRLLLRLLRLLR-NH2 [TN6(2)] | 32 µg/mL | 64 µg/mL | 16 µg/mL | 16 µg/mL | –
13 | RRLLRLLLRLLR-NH2 [RTN6] | 4 µg/mL | 8 µg/mL | 2 µg/mL | 1 µg/mL | –
14 | RVLRVLRVLL-NH2 [TN3V1] | 4 µg/mL | 32 µg/mL | 16 µg/mL | 8 µg/mL | –
15 | RVVRVVRVVV-NH2 [TN3V9] | 128 µg/mL | 256 µg/mL | 64 µg/mL | 16 µg/mL | –
